From ChEMBL document CHEMBL4765358, “Discovery of highly potent and selective antiparasitic new oxadiazole and hydroxy-oxindole small molecule hybrids” (Eur J Med Chem, 2020)

Legend:
[1] = Cytotoxicity against human HFF-1 cells assessed as reduction in cell viability incubated for 120 hrs by MTS assay; format: cell-based
[2] = test system: Trypanosoma cruzi; assay: Antitrypanosomal activity against Trypanosoma cruzi (MHOM/CH/00/Tulahuen C2, lacZ) amastigotes infected in HFF-1 cells assessed as reduction in parasite growth incubated for 120 hrs by CPRG/Igepal substrate based photometric method; format: functional, organism-based; settings: MHOM/CH/00/Tulahuen C2, HFF-1, 120 h
[3] = test system: Leishmania infantum; assay: Antileishmanial activity against Leishmania infantum MHOM/MA/67/ITMAP-263 infected in THP1 cells assessed as reduction in parasite growth incubated for 120 hrs by Giemsa staining based inverted microscopic analysis; format: functional, organism-based; settings: MHOM/MA/67/ITMAP-263, THP-1, 120 h
[4] = Cytotoxicity against human HepG2 cells assessed as reduction in cell viability incubated for 120 hrs by MTS assay; format: cell-based
[5] = test system: Trypanosoma cruzi; assay: Antitrypanosomal activity against Trypanosoma cruzi (MHOM/CH/00/Tulahuen C2, lacZ) amastigotes infected in HFF-1 cells assessed as reduction in parasite growth at 75 uM incubated for 120 hrs by CPRG/Igepal substrate based photometric method relative to control; format: functional; settings: MHOM/CH/00/Tulahuen C2, HFF-1
[6] = test system: Trypanosoma cruzi; assay: Antitrypanosomal activity against Trypanosoma cruzi (MHOM/CH/00/Tulahuen C2, lacZ) amastigotes infected in HFF-1 cells assessed as reduction in parasite growth at 300 uM incubated for 120 hrs by CPRG/Igepal substrate based photometric method relative to control; format: functional; settings: MHOM/CH/00/Tulahuen C2, HFF-1
[7] = test system: Trypanosoma cruzi; assay: Antitrypanosomal activity against Trypanosoma cruzi (MHOM/CH/00/Tulahuen C2, lacZ) amastigotes infected in HFF-1 cells assessed as reduction in parasite growth at 150 uM incubated for 120 hrs by CPRG/Igepal substrate based photometric method relative to control; format: functional; settings: MHOM/CH/00/Tulahuen C2, HFF-1

SMILES | IC50 [2] | CC50 at 120 h [1] | IC50 [3] | CC50 at 120 h [4] | inhibition at 75 µM [5] | inhibition at 300 µM [6] | inhibition at 150 µM [7]
C=C(c1nc(-c2ccccc2)no1)C(O)c1ccc(S(C)(=O)=O)cc1 (stereo not given) | 64.4 µM | > 64 µM | 8.47 µM | 28.7 µM | – | – | –
C=C(c1nc(-c2ccccc2)no1)C(O)c1ccc(OC)cc1 (stereo not given) | 81.3 µM | > 64 µM | 18 µM | 33.6 µM | – | – | –
C=C(c1nc(-c2ccccc2)no1)C1(O)C(=O)N(CC)c2ccc(Cl)cc21 (stereo not given) | > 100 µM | > 64 µM | 2.5 µM | 6.78 µM | – | – | –
C=C(c1nc(-c2ccccc2)no1)C1(O)C(=O)N(C)c2ccccc21 (stereo not given) | > 64 µM | 53.8 µM | 51.4 µM | 6.73 µM | – | – | –
C=C(c1nc(-c2ccccc2)no1)C1(O)C(=O)N(CC)c2ccc(OC(F)(F)F)cc21 (stereo not given) | > 100 µM | > 64 µM | 11.1 µM | 10.4 µM | – | – | –
C=C(c1nc(-c2ccccc2)no1)C1(O)C(=O)N(CC)c2c(Cl)cccc21 (stereo not given) | > 100 µM | 62.1 µM | 4.85 µM | 13.5 µM | – | – | –
C=C(c1nc(-c2ccccc2)no1)C(O)c1ccc(C#N)cc1 (stereo not given) | > 100 µM | > 64 µM | 21.7 µM | 32 µM | – | – | –
C=C(c1nc(-c2ccccc2)no1)C1(O)C(=O)N(CC)c2c(Br)cccc21 (stereo not given) | > 100 µM | 21.5 µM | 10.4 µM | 22.8 µM | – | – | –
C=C(c1nc(-c2ccc(OC)cc2)no1)C1(O)C(=O)N(CC)c2ccc(OC)cc21 (stereo not given) | > 64 µM | 54.5 µM | 22 µM | 13.6 µM | – | – | –
C=C(c1nc(-c2ccc(OC)cc2)no1)C1(O)C(=O)N(CC)c2ccccc21 (stereo not given) | > 64 µM | > 64 µM | 2.85 µM | 26.9 µM | – | – | –
COc1cccc2c1C(=O)c1c(O)c3c(c(O)c1C2=O)C[C@@](O)(C(=O)CO)C[C@@H]3O[C@H]1C[C@H](N)[C@H](O)[C@H](C)O1 [DOXORUBICIN] | – | 0.53 µM | – | 0.77 µM | – | – | –
C=C(c1nc(-c2ccc([N+](=O)[O-])cc2)no1)C1(O)C(=O)N(CC)c2ccccc21 (stereo not given) | – | – | 3.33 µM | 10.9 µM | – | – | –
C=C(c1nc(-c2ccc(Cl)cc2)no1)C1(O)C(=O)N(CC)c2ccc([N+](=O)[O-])cc21 (stereo not given) | > 64 µM | > 64 µM | 6.48 µM | 10.4 µM | – | – | –
C=C(c1nc(-c2ccc(OC)cc2)no1)C(O)c1ccccc1[N+](=O)[O-] (stereo not given) | > 100 µM | 42.2 µM | 2.38 µM | 10.6 µM | – | – | –
C=C(c1nc(-c2ccccc2)no1)C(O)c1ccccc1[N+](=O)[O-] (stereo not given) | 58.4 µM | > 64 µM | 10.3 µM | 14 µM | – | – | –
CCCCCCCCCCCCCCCCOP(=O)([O-])OCC[N+](C)(C)C [MILTEFOSINE] | – | – | 2.3 µM | – | – | – | –

SMILES | IC50 [2] | CC50 at 120 h [1] | IC50 [3] | CC50 at 120 h [4] | inhibition at 75 µM [5] | inhibition at 300 µM [6] | inhibition at 150 µM [7]
C=C(c1nc(-c2ccc(OC)cc2)no1)C(O)c1ccccc1 (stereo not given) | > 100 µM | 55.1 µM | 11.5 µM | 39.6 µM | – | – | –
C=C(c1nc(-c2ccccc2)no1)C(O)c1ccc(Cl)cc1 (stereo not given) | 57.5 µM | > 64 µM | 6.92 µM | 10.1 µM | – | – | –
C=C(c1nc(-c2ccc([N+](=O)[O-])cc2)no1)C(O)c1cc(OC)c(OC)c(OC)c1 (stereo not given) | > 64 µM | > 64 µM | 52.6 µM | 57.3 µM | – | – | –
C=C(c1nc(-c2ccccc2)no1)C(O)c1cccc(F)c1 (stereo not given) | > 100 µM | > 64 µM | 7.29 µM | 14.1 µM | – | – | –
C=C(c1nc(-c2ccc(OC)cc2)no1)C(O)c1ccc(C#N)cc1 (stereo not given) | > 100 µM | > 64 µM | 3.89 µM | 13.6 µM | – | – | –
C=C(c1nc(-c2ccccc2)no1)C(O)c1cc(F)cc(F)c1 (stereo not given) | > 100 µM | > 64 µM | 5.12 µM | 7.92 µM | – | – | –
C=C(c1nc(-c2ccccc2)no1)C1(O)C(=O)N(CC)c2ccc(OC)cc21 (stereo not given) | > 100 µM | > 64 µM | 7.29 µM | 13.5 µM | – | – | –
C=C(c1nc(-c2ccc(OC)cc2)no1)C1(O)C(=O)N(CC)c2ccc([N+](=O)[O-])cc21 (stereo not given) | > 64 µM | > 64 µM | 25.9 µM | 13.6 µM | – | – | –
C=C(c1nc(-c2ccc([N+](=O)[O-])cc2)no1)C1(O)C(=O)N(CC)c2ccc(OC)cc21 (stereo not given) | > 64 µM | 43.6 µM | 12 µM | 5.83 µM | – | – | –
C=C(c1nc(-c2ccc([N+](=O)[O-])cc2)no1)C(O)c1ccccc1 (stereo not given) | > 64 µM | > 64 µM | 37.5 µM | 27.1 µM | – | – | –
C=C(c1nc(-c2cc(OC)c(OC)c(OC)c2)no1)C(O)c1ccccc1 (stereo not given) | > 100 µM | > 64 µM | 12 µM | 27.4 µM | – | – | –
C=C(c1nc(-c2ccccc2)no1)C(O)c1ccccn1 (stereo not given) | > 100 µM | 30.1 µM | 17.9 µM | 58.6 µM | – | – | –
C=C(c1nc(-c2ccccc2)no1)C1(O)C(=O)N(CC)c2c(Cl)cc(Cl)cc21 (stereo not given) | > 100 µM | > 64 µM | 4.1 µM | 6.77 µM | – | – | –
C=C(c1nc(-c2ccccc2)no1)C(O)/C=C/c1ccccc1 (stereo not given) | 55.7 µM | > 64 µM | 20.6 µM | 30.3 µM | – | – | –
C=C(c1nc(-c2ccc([N+](=O)[O-])cc2)no1)C1(O)C(=O)N(CC)c2ccc([N+](=O)[O-])cc21 (stereo not given) | > 64 µM | > 64 µM | 7.36 µM | 7.12 µM | – | – | –
C=Cc1nc(-c2ccc([N+](=O)[O-])cc2)no1 | > 64 µM | > 64 µM | 12.2 µM | 26.9 µM | – | – | –

Further compounds by falling IC50 [2], results first:

IC50 [2] | SMILES | CC50 at 120 h [1] | IC50 [3] | CC50 at 120 h [4] | inhibition at 75 µM [5] | inhibition at 300 µM [6] | inhibition at 150 µM [7]
37.2 µM | C=Cc1nc(-c2ccccc2)no1 | > 64 µM | > 64 µM | > 64 µM | – | – | –
37.1 µM | C=C(c1nc(-c2ccc([N+](=O)[O-])cc2)no1)C(O)c1nccs1 (stereo not given) | > 64 µM | > 64 µM | > 64 µM | – | – | –
36.5 µM | C=C(c1nc(-c2ccccc2)no1)C(O)c1ccc(Br)cc1 (stereo not given) | > 64 µM | 43.9 µM | 41.1 µM | – | – | –
28.4 µM | C=C(c1nc(-c2ccc(Cl)cc2)no1)C1(O)C(=O)N(CC)c2ccc(OC)cc21 (stereo not given) | 40.7 µM | 5.09 µM | 11.5 µM | – | – | –
27 µM | C=C(c1nc(-c2ccccc2)no1)C(O)c1ccc(Cl)c(F)c1 (stereo not given) | > 64 µM | 18.9 µM | 27.8 µM | – | – | –
26.7 µM | CCN1C(=O)C2(OCC=C2c2nc(-c3ccccc3)no2)c2cccc(Br)c21 (stereo not given) | 34.2 µM | 6.41 µM | 58.4 µM | – | – | –
25.7 µM | C=C(c1nc(-c2ccccc2)no1)C(O)c1ccccc1Cl (stereo not given) | > 64 µM | 17.6 µM | 59.2 µM | – | – | –
23.6 µM | C=C(c1nc(-c2ccc(Cl)cc2)no1)C1(O)C(=O)N(CC)c2ccccc21 (stereo not given) | > 64 µM | 4.01 µM | 13.8 µM | – | – | –
19.3 µM | C=C(c1nc(-c2ccccc2)no1)C(O)CCCC (stereo not given) | > 64 µM | 35.9 µM | > 64 µM | – | – | –
17.6 µM | C=C(c1nc(-c2ccccc2)no1)C(O)c1cc2c(cc1Br)OCO2 (stereo not given) | > 64 µM | 8.93 µM | 58.5 µM | – | – | –
16.6 µM | C=C(c1nc(-c2ccccc2)no1)C1(O)C(=O)N(CC)c2ccc(C)cc21 (stereo not given) | > 64 µM | 6.01 µM | 26.7 µM | – | – | –
16.2 µM | C=C(c1nc(-c2ccccc2)no1)C1(O)C(=O)N(c2ccccc2)c2ccccc21 (stereo not given) | 27.9 µM | 8.17 µM | 14.1 µM | – | – | –
15.6 µM | C=Cc1nc(-c2ccc(OC)cc2)no1 | > 64 µM | 25.2 µM | 58 µM | – | – | –
14.8 µM | C=C(c1nc(-c2ccccc2)no1)C1(O)C(=O)N(CC)c2ccc(F)cc21 (stereo not given) | > 64 µM | 3.51 µM | 9.37 µM | – | – | –
12.1 µM | CCN1C(=O)C2(OCC=C2c2nc(-c3ccccc3)no2)c2ccccc21 (stereo not given) | 20.6 µM | 11.7 µM | 60.4 µM | – | – | –
12 µM | C=CCOC1(C(=C)c2nc(-c3ccccc3)no2)C(=O)N(CC)c2ccccc21 (stereo not given) | > 64 µM | 10.7 µM | > 64 µM | – | – | –
10.6 µM | C=C(c1nc(-c2ccccc2)no1)C1(O)C(=O)N(Cc2ccccc2)c2ccccc21 (stereo not given) | > 64 µM | 5.65 µM | 19.2 µM | – | – | –
8.8 µM | C=C(c1nc(-c2ccc(OC)cc2)no1)C(O)c1ccccc1C(F)(F)F (stereo not given) | > 64 µM | 8.55 µM | > 64 µM | – | – | –
8.2 µM | C=C(c1nc(-c2ccccc2)no1)C(O)c1ccccc1 (stereo not given) | > 64 µM | 9.81 µM | 27.2 µM | – | – | –
7.8 µM | C=C(c1nc(-c2ccccc2)no1)C(O)c1ccc([N+](=O)[O-])cc1 (stereo not given) | > 64 µM | 10.4 µM | 14.2 µM | – | – | –
5.6 µM | O=C(Cn1ccnc1[N+](=O)[O-])NCc1ccccc1 [BENZNIDAZOLE] | – | – | – | 85.5% | 100% | 92.8%
